The target of assay [1] is T1, NK-1 receptor (Cavia porcellus, UniProt P30547).
T1 construct: tissue Keystone Biologicals, Cleveland, OH; host or cells: guinea pig lung
As to the kind of experiment: NK-1 receptor binding (125I-Bolton-Hunter substance P) in guinea pig lung membranes. The note with it: 0.1 nM 125I-Bolton-Hunter Lys-3 substance P, mean ± S.E.M. Here is the method:
(§1) Receptor binding assays were performed in crude tissue membranes. The NK-1 receptor binding affinity of proposed tachykinin antagonists was evaluated in guinea pig lungs (Keystone Biologicals, Cleveland, OH, kept frozen at -80° C. until use). Affinity for the NK-2 receptor was evaluated in HSKR-1 cells which are mouse 3T3 fibroblasts expressing the human jejunal NK-2 receptor. Tissues or cells were homogenized with a Polytron in 15 volumes of 50 mM Tris-HCl buffer (pH 7.4, 4° C.) containing 120 mM NaCl and 5 mM KCl and centrifuged at 48,000×g for 12 min. at 4° C. The pellet was resuspended in 15 volumes of 50 mM Tris-HCl buffer containing 10 mM EDTA and 300 mM KCl then set on ice for 30 min. The suspension was cetrifuged as above and the pellet washed by resuspension and cetrifugation two additional times in 50 mM Tris-HCl buffer (pH 7.4, 4° C.). The final pellet was resuspended in a concentration of 20 mg/ml in incubation buffer then kept at room temperature for at least 15 min prior to use. Receptor binding was initiated by addition of 250 μl membrane preparation (final protein concentration; lungs=286 μg/tube, HSKR-1 cells=100 μg/tube) in duplicate to 0.1 nM of the following radioligands: for NK-1 receptor assays, ^125 I-Bolton-Hunter Lys-3 labeled substance P (New England Nuclear, specific activity, 2200 Ci/mmol); for NK-2 receptor assays, ^125 iodohistidyl-1-neurokinin A (Amersham, specific activity, 2000 Ci/mmol) in a final volume of 500 μl of buffer containing 50 mM Tris-HCl (pH 7.4 at room temperature), 0.1% bovine serum albumin, 2 mM MnCl2, 40 μg/ml bacitracin, 4 μg/ml leupeptin and chymostatin, 1 μM thiorphan and various doses of the tachykinin antagonists. Incubations were performed at room temperature for 90 min (NK-1 receptor assays) or 2 hr (NK-2 receptor assays); binding was terminated by addition of 50 mM Tris-HCl buffer (pH 7.4, 4° C.) and filtration under vacuum through GF/B filters presoaked with 0.1% polyethyleneimine (NK-1 receptor assays) or 0.5% bovine serum albumin (NK-2 receptor assays). Nonspecific binding was defined as binding in the presence of 1 μM substance P (NK-1 receptor assays) or neurokinin A (NK-2 receptor assays) (Peptides International, Inc., Louisville, Ky.). Specific binding was calculated by subtracting nonspecific binding from total binding and corresponded to 70-90% of total binding. Data were analyzed and IC50 values generated by nonlinear regression using an iterative curve fitting program (GraphPAD Inplot, San Diego, Calif.). Protein was determined by the method of Lowry.

For assay [2], the target named is T2, human jejunal NK-2 receptor (Homo sapiens, UniProt P21452).
T2 construct: expressed in transfected cells; host or cells: HSKR-1 (mouse 3T3 fibroblasts)
T2 sequence (P21452 1-398): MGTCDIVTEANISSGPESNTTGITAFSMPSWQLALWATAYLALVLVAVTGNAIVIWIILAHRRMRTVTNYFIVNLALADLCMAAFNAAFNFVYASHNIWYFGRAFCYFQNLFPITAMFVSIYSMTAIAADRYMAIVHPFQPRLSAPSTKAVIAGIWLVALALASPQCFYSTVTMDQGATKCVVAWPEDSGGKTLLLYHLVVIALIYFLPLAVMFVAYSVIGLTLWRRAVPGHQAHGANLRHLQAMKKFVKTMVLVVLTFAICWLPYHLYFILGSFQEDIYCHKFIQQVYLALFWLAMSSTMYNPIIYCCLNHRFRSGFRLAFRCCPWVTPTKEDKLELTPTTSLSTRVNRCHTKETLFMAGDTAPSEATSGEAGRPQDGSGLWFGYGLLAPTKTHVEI
Description: NK-2 receptor binding (125I-neurokinin A) in HSKR-1 cell membranes. Conditions: HSKR-1 cells (mouse 3T3 fibroblasts expressing human jejunal NK-2 receptor); 0.1 nM 125I-iodohistidyl-1-neurokinin A; mean ± S.E.M. Here is the method: as §1

Where a SMILES comes first, the peptide text is derived from it. [ ]: non-standard residue; d: D form. Phe(4-NO2) = N[C@@H](Cc1ccc([N+](=O)[O-])cc1)C(=O)O; Phe(4-Cl) = N[C@@H](Cc1ccc(Cl)cc1)C(=O)O; Phe(4-NH2) = Nc1ccc(C[C@H](N)C(=O)O)cc1

T1 sequence (P30547 whole entry): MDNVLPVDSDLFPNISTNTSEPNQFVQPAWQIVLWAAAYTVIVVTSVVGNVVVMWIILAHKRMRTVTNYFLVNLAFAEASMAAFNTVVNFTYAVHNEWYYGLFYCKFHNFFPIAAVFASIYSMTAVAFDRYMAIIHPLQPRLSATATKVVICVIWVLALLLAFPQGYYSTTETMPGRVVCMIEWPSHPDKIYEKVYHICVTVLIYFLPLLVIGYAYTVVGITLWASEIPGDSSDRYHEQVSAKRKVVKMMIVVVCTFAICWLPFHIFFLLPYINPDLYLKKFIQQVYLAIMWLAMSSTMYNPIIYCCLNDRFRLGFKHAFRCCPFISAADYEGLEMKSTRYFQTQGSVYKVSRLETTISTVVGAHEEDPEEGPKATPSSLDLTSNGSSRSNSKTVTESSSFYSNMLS

As usually defined, the IC50 is the concentration at which inhibition is half-maximal. Lower therefore signals greater potency in that assay. For `CC(C)C[C@@H]1NC(=O)[C@@H](Cc2c[nH]c3ccccc23)NC(=O)[C@H](Cc2ccc(O)cc2)NC(=O)CNC(=O)[C@H](Cc2ccc([N+](=O)[O-])cc2)NC(=O)[C@H](CCCNC(=N)N)NC1=O` [cyclo[Tyr-trp-Leu-Arg-(p-NO2 -Phe)-Gly]] (cyclo(GY[dW]LR[Phe(4-NO2)])), the values for the IC50 in assay [1] and in assay [2] were more than 10000 nM and 11.7 ± 0.44 nM, respectively. Molecule `CC(C)C[C@@H]1NC(=O)[C@@H](Cc2c[nH]c3ccccc23)NC(=O)[C@H](Cc2ccc(O)cc2)NC(=O)[C@@H](C)NC(=O)[C@H](Cc2c[nH]c3ccccc23)NC(=O)[C@H](CCCNC(=N)N)NC1=O` [cyclo[Tyr--trp--Leu--Arg--Trp--ala]] (cyclo(LRW[dA]Y[dW])) yielded a half-inhibitory concentration (IC50) in assay [2] of 7.99 ± 1.02 nM. `CC(C)C[C@@H]1NC(=O)[C@@H](Cc2c[nH]c3ccccc23)NC(=O)[C@@H](Cc2ccc(O)cc2)NC(=O)CNC(=O)[C@H](Cc2c[nH]c3ccccc23)NC(=O)[C@H](CCCNC(=N)N)NC1=O` [cyclo[tyr--trp--Leu--Arg--Trp--Gly]] (cyclo(G[dY][dW]LRW)): the IC50 in assay [1] is more than 10000 nM; in assay [2], 4.97 ± 0.42 nM.

For `CC(C)C[C@@H]1NC(=O)[C@@H](Cc2c[nH]c3ccccc23)NC(=O)[C@H](Cc2ccc(O)cc2)NC(=O)CNC(=O)[C@H](Cc2ccc(N)cc2)NC(=O)[C@H](CCCNC(=N)N)NC1=O` [cyclo[Tyr-trp-Leu-Arg-(p-NH2 -Phe)-Gly]] (cyclo(GY[dW]LR[Phe(4-NH2)])), the results for the IC50 in assay [1] and in assay [2] were more than 10000 nM and 20.2 ± 2.03 nM, respectively. Regarding `CC(C)C[C@@H]1NC(=O)[C@@H](Cc2c[nH]c3ccccc23)NC(=O)[C@H](Cc2ccc(O)cc2)NC(=O)[C@@H]2CCCN2C(=O)[C@H](Cc2c[nH]c3ccccc23)NC(=O)[C@H](CCCNC(=N)N)NC1=O` [cyclo[Tyr--trp--Leu--Arg--Trp--Pro], cyclo[Tyr-trp-Leu-Arg-Trp-Pro]] (cyclo(LRWPY[dW])), the IC50 in assay [1] came out at 5170 ± 507 nM; in assay [2] it was 30 ± 2.52 nM. `CC(C)C[C@@H]1NC(=O)[C@@H](Cc2c[nH]c3ccccc23)NC(=O)[C@H](Cc2ccc(O)cc2)NC(=O)[C@H](C)NC(=O)[C@H](Cc2c[nH]c3ccccc23)NC(=O)[C@H](CCCNC(=N)N)NC1=O` [cyclo[Tyr--trp--Leu--Arg--Trp--Ala], cyclo[Tyr-trp-Leu-Arg-Trp-Ala]] (cyclo(AY[dW]LRW)): the IC50 in assay [2] was 9.9 ± 0.9 nM. In the case of `N=C(N)NCCC[C@@H]1NC(=O)[C@@H]2CCCN2C(=O)[C@@H](Cc2c[nH]c3ccccc23)NC(=O)[C@H](Cc2ccc(O)cc2)NC(=O)CNC(=O)[C@H](Cc2c[nH]c3ccccc23)NC1=O` [cyclo[Tyr--trp--Pro--Arg--Trp--Gly], cyclo[Tyr-trp-Pro-Arg-Trp-Gly]] (cyclo(GY[dW]PRW)), the values for the 50% inhibitory concentration (IC50) in assay [1] and in assay [2] were more than 10000 nM and 5.13 ± 0.36 nM, respectively.

`CC(C)C[C@@H]1NC(=O)[C@@H](Cc2c[nH]c3ccccc23)NC(=O)[C@H](Cc2ccc(O)cc2)NC(=O)[C@H](C)NC(=O)[C@H](Cc2ccc(O)cc2)NC(=O)[C@H](CCCNC(=N)N)NC1=O` [cyclo[Tyr--trp--Leu--Arg--Tyr--Ala], cyclo[Tyr-trp-Leu-Arg-Tyr-Ala]] (cyclo(AY[dW]LRY)): in assay [2], the IC50 was 206 ± 15 nM.

For `CC(C)C[C@@H]1NC(=O)[C@@H](Cc2c[nH]c3ccccc23)NC(=O)[C@H](Cc2ccc(O)cc2)NC(=O)CNC(=O)[C@@H](Cc2c[nH]c3ccccc23)NC(=O)[C@H](CCCNC(=N)N)NC1=O` [cyclo[Tyr--trp--Leu--Arg--trp--Gly]] (cyclo(GY[dW]LR[dW])), the IC50 in assay [1] is more than 10000 nM; in assay [2] it was 193 ± 11.5 nM. Consider `CC(C)C[C@@H]1NC(=O)[C@@H](Cc2c[nH]c3ccccc23)NC(=O)[C@H](Cc2ccc(O)cc2)NC(=O)CNC(=O)[C@H](Cc2ccc(O)cc2)NC(=O)[C@H](CCCNC(=N)N)NC1=O` [cyclo[Tyr--trp--Leu--Arg--Tyr--Gly], cyclo[Tyr-trp-Leu-Arg-Tyr-Gly]] (cyclo(GY[dW]LRY)), for which the IC50 was more than 10000 nM in assay [1] and 18.9 ± 1.58 nM in assay [2]. Consider `N=C(N)NCCC[C@@H]1NC(=O)[C@@H]2CCCN2C(=O)[C@@H](Cc2ccccc2)NC(=O)[C@H](Cc2ccccc2)NC(=O)CNC(=O)[C@H](Cc2ccccc2)NC1=O` [cyclo[Phe--phe--Pro--Arg--Phe--Gly], cyclo[Phe-phe-Pro-Arg-Phe-Gly]] (cyclo(FGF[dF]PR)), for which the figures for the IC50 in assay [1] and in assay [2] were 9310 ± 2070 nM and 674 ± 57 nM, respectively. Take `CC(C)C[C@@H]1NC(=O)[C@@H](Cc2c[nH]c3ccccc23)NC(=O)[C@H](Cc2ccc(O)cc2)NC(=O)[C@H](Cc2c[nH]c3ccccc23)NC(=O)CNC(=O)[C@H](CCCNC(=N)N)NC1=O` [cyclo[Tyr--trp--Leu--Arg--Gly--Trp], cyclo[Tyr-trp-Leu-Arg-Gly-Trp]] (cyclo(GWY[dW]LR)): the IC50 in assay [2] is 360 ± 21 nM. Consider `CC(C)C[C@@H]1NC(=O)[C@H](Cc2c[nH]c3ccccc23)NC(=O)[C@H](Cc2ccc(O)cc2)NC(=O)CNC(=O)[C@H](Cc2c[nH]c3ccccc23)NC(=O)[C@H](CCCNC(=N)N)NC1=O` [cyclo[Tyr--Trp--Leu--Arg--Trp--Gly]] (cyclo(GYWLRW)), for which the IC50 amounted to 10000 nM in assay [1] and 305 ± 31 nM in assay [2]. As for `CC(C)C[C@@H]1NC(=O)[C@H](CCC(N)=O)NC(=O)[C@@H](Cc2ccc(O)cc2)NC(=O)CNC(=O)[C@H](Cc2c[nH]c3ccccc23)NC(=O)[C@H](CCCNC(=N)N)NC1=O` [cyclo[tyr--Gln--Leu--Arg--Trp--Gly], cyclo[tyr-Gln-Leu-Arg-Trp-Gly]] (cyclo(G[dY]QLRW)), in assay [2], the IC50 came out at 407 ± 52 nM. With `CC(C)C[C@@H]1NC(=O)[C@@H](Cc2c[nH]c3ccccc23)NC(=O)[C@H](Cc2ccc(O)cc2)NC(=O)CNC(=O)[C@H](Cc2ccc(Cl)cc2)NC(=O)[C@H](CCCNC(=N)N)NC1=O` [cyclo[Tyr-trp-Leu-Arg-(p-Cl-Phe)-Gly]] (cyclo(GY[dW]LR[Phe(4-Cl)])), the IC50 in assay [1] was approximately 10000 nM; in assay [2], 13.3 ± 1.31 nM. Molecule `CC(C)C[C@@H]1NC(=O)CNC(=O)[C@H](Cc2c[nH]c3ccccc23)NC(=O)[C@H](CCCNC(=N)N)NC(=O)[C@H](CC(C)C)NC(=O)CNC(=O)[C@H](Cc2c[nH]c3ccccc23)NC(=O)[C@H](CCCNC(=N)N)NC1=O` [cyclo[Leu-Arg-Trp-Gly-Leu-Arg-Trp-Gly]] (cyclo(GLRWGLRW)) registered an IC50 in assay [2] of 768 ± 75 nM. Turning to `CC(C)C[C@@H]1NC(=O)[C@@H](Cc2c[nH]c3ccccc23)NC(=O)[C@H](Cc2c[nH]c3ccccc23)NC(=O)CNC(=O)[C@H](Cc2c[nH]c3ccccc23)NC(=O)[C@H](CCCNC(=N)N)NC1=O` [cyclo[Trp--trp--Leu--Arg--Trp--Gly], cyclo[Trp-trp-Leu-Arg-Trp-Gly]] (cyclo(GW[dW]LRW)), the IC50 in assay [1] came out at 4830 ± 297 nM; in assay [2], 4.7 ± 0.15 nM. `C[C@@H]1NC(=O)[C@@H](Cc2c[nH]c3ccccc23)NC(=O)[C@H](Cc2ccc(O)cc2)NC(=O)CNC(=O)[C@H](Cc2c[nH]c3ccccc23)NC(=O)[C@H](CCCNC(=N)N)NC1=O` [cyclo[Tyr--trp--Ala--Arg--Trp--Gly], cyclo[Tyr-trp-Ala-Arg-Trp-Gly]] (cyclo(ARWGY[dW])): the 50% inhibitory concentration (IC50) in assay [2] was 56.7 ± 5.45 nM.

Values taken from patent US5521156A, “Cyclic neurokinin A antagonists” (priority 1994, dated 1996).
